Assay results from patent US12240854B2, “TRAF 6 inhibitors” (Helmholtz Zentrum München - Deutsches Forschungszentrum für …, priority 2018, dated 2025).
Entries after “also recorded” stand apart in the source; their conditions may differ.

Tests used:
[1] = tested on: NF-κB activation in Jurkat T-cells; experiment: EMSA for NF-κB activation in Jurkat T-cells; format: cell-based, human; settings: PMA/Ionomycin
Procedure: For compound treatment, MEF cells were seeded in 6 well plates at 1.2×10^5 cells/well the day before treatment. Jurkat T-cells were seeded directly before treatment at 2×10^5 cells/sample. Six hours after compound or DMSO treatment cells were stimulated as indicated. Thereby, MEF cells were left untreated or stimulated with recombinant mouse IL-1β (1 ng/mL) or TNFα (10 ng/mL) for 20 minutes. Jurkat T-cells were stimulated with Phorbol-12-myristat-13-acetet (PMA) (400 ng/mL) and lonomycin (600 ng/mL) for 30 minutes. Eventually, cells were lysed in high-salt lysis buffer (20 mM HEPES pH 7.9; 350 mM NaCl; 1 mM MgCl2; 0.5 mM EDTA; 0.1 mM EGTA; 20% Glycerol; 1% NP-40; 10 mM NaF; 8 mM β-Glycerophosphate; 1 mM DTT; 300 μM Sodium-vanadate; complete protease inhibitor) and analyzed in EMSA assays using H2K (NF-κB) or Oct-1 (loading control) probes.

[2] = tested on: HepG2 cells; experiment: CellTiter-Glo viability assay, HepG2 cells; format: cell-based; settings: 6 or 24 hours incubation
Procedure: For cell viability experiments using the CellTiter-Glo® 2.0 system (Promega), MEF cells (1.2×10^3 cells/well), HepG2 cells (4×10^3 cells/well) and Jurkat T-cells (5×10^3 cells/well) were seeded in 384 well plates. After 18 hours, cells were treated with compounds using the Sciclone G3 automation system. After 6 or 24 hours incubation, the luciferase measurement was performed according to the manufacturer's manual.

[3] = tested on: HBL1 (ABC-DLBCL-MYD88 L265P); experiment: Cell viability in DLBCL, HBL1; format: cell-based; settings: HBL1, 30 μM, added at day 0, 4 and 8, 9 days
Procedure: (§1) To determine the effects of C25-140 on MYD88-dependent ABC-DLBCL, we chose the HBL1 (ABC-DLBCL-MYD88 L265P), U2932 (ABC DLBCL-MYD88 wt) and BJAB (GCB DLBCL) cell lines. 1×10^6 cells of each cell line was seeded in 5 ml and treated with 30 μM compound C25-140 (compound 3) or DMSO. The entire experiment was carried out for 9 days. Every day 500 μl were taken and viable cell number was acquired using the ViCEII cell counter (Beckmann Coulter). At days 4 and 8 of the experiment the volume was again adjusted to 5 ml and samples were supplemented with 30 μM compound C25-140 or DMSO. This process was necessary to ensure linear proliferation of DMSO treated cells. All curves of C25-140 treated samples were referred to the corresponding DMSO treated controls.

[4] = tested on: U2932 (ABC DLBCL-MYD88 wt); experiment: Cell viability in DLBCL, U2932; format: cell-based; settings: U2932, 30 μM, 9 days
Procedure: as §1

[5] = tested on: BJAB (GCB DLBCL); experiment: Cell viability in DLBCL, BJAB; format: cell-based; settings: 30 μM, 9 days
Procedure: as §1

[6] = tested on: 87 primary molecular targets (kinases, non-kinase enzymes, nuclear receptors, GPCRs, transporters and ion channels); experiment: SafetyScreen87 (Eurofins Cerep Panlabs); format: binding; settings: 10 μM
Procedure: The SafetyScreen87, a total of 87 assays, was carried out at Eurofins Cerep Panlabs. 87 primary molecular targets including 13 enzyme assays (kinases and non-kinase enzymes) and 74 binding assays (nuclear receptors, GPCRs, transporters and ion channels) were performed at a compound concentration of 10 μM C25-140. Each of the 87 assay reactions was performed at the optimised condition that was historically available at Eurofins Cerep Panlabs. In parallel to C25-140, a reference compound for each of the 87 reactions was concurrently tested to guarantee optimal setting of the assays. In this study the reference compounds performed in the same range as historic Ki values.

[7] = tested on: primary murine CD4+ T-cells; experiment: Primary mouse CD4+ T-cells, CD3/CD28 stimulation (qRT-PCR, ELISA); format: cell-based; settings: primary naive CD4+ T-cells
Procedure: For MEF cells, 1.2×10^5 cells per sample were seeded, treated with compound for 6 hours and stimulated with either IL-1β or TNFα for 60 minutes. […] RNA was isolated according to the manufacturer's protocol of the Qiagen RNeasy Kit (MEF cells) or the STRATEC INVITRAP® SPIN UNIVERSAL RNA MINI KIT (Jurkat T-cells). The isolation of mRNA from […] white adipose tissue from DIO mice was performed using TRIzol® Reagent according to manufacturer's instruction. To clear the isolated RNA from genomic DNA, samples (up to 5 μg RNA) were treated with RQ1 RNase-Free DNaseI (Promega) as described in the technical manual. […] For quantification of cDNA in the samples, the LightCylcer480 (Roche) and the KAPA SYBR FAST qPCR Kit were used. For relative quantification, the ΔΔCp method first described by Pfaffl (Pfaffl, M. W., A new mathematical model for relative quantification in real-time RT-PCR. Nucleic Acids Res, 2001. 29(9): p. e45) was applied. […]
For measurement of cytokine secretion, 2×10^5 Jurkat T-cells or primary CD4^+ T-cells or human PBMCs per sample were seeded, treated with compound for 6 hours and stimulated as indicated. 20 hours after stimulation, supernatants were harvested and analyzed with the IL-2, IL-1β and TNFα Ready-Set-Go! […]

## Cc1nn(-c2ccc3nnc(C)n3n2)c(C)c1CCC(=O)N1CCC(Cc2ccccc2)CC1 [Example C25-140, 1-(4-Benzylpiperidin-1-yl)-3-(3,5-dimethyl-1-(3-methyl-[1,2,4]-triazolo-[4,3-b]-pyridazin-6-yl)-1H-pyrazol-4-yl)-propan-1-one]
[1]
  NF-κB activation: reduced; also recorded: attenuated NF-κB activation
[2]
  metabolic activity and cell viability: did not considerably impact cell viability; also recorded: does not considerably affect metabolic activity and cell viability up to 50 μM; also recorded: at the highest dose of 100 μM toxicity is noticeable
[3]
  viability of MYD88-dependent ABC-DLBCL: selectively kills ABC-DLBCL with chronic MYD88 signaling; also recorded: significantly reduced viability; also recorded: diminished
[4]
  viability of MYD88 wildtype ABC DLBCL: only slightly affected; also recorded: not affected
[5]
  viability of GCB DLBCL: did not show any difference in viability; also recorded: not affected
[6]
  effect on / binding to the 87 SafetyScreen87 targets: no significant binding; also recorded: did not markedly affect any of the 87 molecular targets
[7]
  IL-2 mRNA expression: impaired
  IL-2 protein secretion: counteracted; also recorded: impaired
